Data on 9 compounds can be found in PubChem BioAssay (NCI).

Some test systems named below: MOLT-4 leukemia; A549 NSCLC; OVCAR-5 ovarian; OVCAR-3 ovarian; 786-0 renal; M14 melanoma; T-47D breast; RPMI-8226 leukemia; HCT-116 colon; A498 renal.
Assay in all cases: inhibition of tumour cell growth, NCI panel, 48 h

Several values for one entry are separate records, joined by “and”; a condition that tells them apart may be missing. Equal values may be shown once.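 1) Cells in 96-well plates. 2) Compound, 48 h, 5 concentrations. 3) Linear interpolation between surrounding doses. 4) Unreached endpoint = highest concentration. GI50 is the concentration that inhibits growth by half. Definition used: TGI = concentration required for complete inhibition of growth.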 Some results are limits rather than exact numbers.

Take `CC1=C/C(O)CC(=O)Cc2nc(co2)C(=O)N2CCC=C2C(=O)OC(C(C)C)C(C)/C=C\C(=O)NC/C=C\1` (configuration not stated): the GI50 with MOLT-4 leukemia was 8.54 µM; in the experiment with A549 NSCLC it was 25.1 µM; in the experiment with OVCAR-5 ovarian, 31.6 µM; in the experiment on OVCAR-3 ovarian, 13.6 µM; in the experiment with 786-0 renal, 26.2 µM; in the experiment with M14 melanoma, 23 µM. For the same compound, the GI50 in the experiment with T-47D breast is 8.3 µM; in the experiment with RPMI-8226 leukemia it was 7.98 µM; in the experiment with HCT-116 colon it was 3.63 µM; in the experiment with A498 renal, 44.9 µM. The TGI with MOLT-4 leukemia is > 32.6 µM and 53.5 µM; in the experiment on A549 NSCLC, > 100 µM; in the experiment on OVCAR-5 ovarian, 71.8 µM and 75.6 µM; in the experiment with OVCAR-3 ovarian, 37.6 µM and 93.6 µM; in the experiment on 786-0 renal it was 90.1 µM and 60.8 µM; in the experiment with M14 melanoma it was > 100 µM and 42.3 µM. Moreover, the TGI was > 48.5 µM and 36.8 µM with T-47D breast; > 100 µM and 43.4 µM in the experiment on RPMI-8226 leukemia; 14.8 µM and 28.1 µM with HCT-116 colon; > 84.1 µM and 76.3 µM in the experiment on A498 renal.
As to `COc1ccccc1Nc1nc2ccccc2c2occc12`, the GI50 in the experiment with A549 NSCLC was 14.6 µM; in the experiment on OVCAR-5 ovarian it was 19.4 µM; in the experiment with OVCAR-3 ovarian, 20.2 µM; in the experiment with 786-0 renal it was 15.3 µM; with M14 melanoma it was 17.3 µM; in the experiment on T-47D breast it was 27.5 µM. The figures for the GI50 in the experiment with RPMI-8226 leukemia, in the experiment on HCT-116 colon and with A498 renal were 20.6 µM, 20.8 µM and 21.2 µM, respectively. Also, the TGI with A549 NSCLC is 41.4 µM; in the experiment with OVCAR-5 ovarian it was 39.2 µM; in the experiment with OVCAR-3 ovarian, > 50 µM; in the experiment on 786-0 renal, 38.7 µM; in the experiment on M14 melanoma, 40.4 µM; in the experiment with T-47D breast it was > 50 µM. Also, the TGI with RPMI-8226 leukemia was > 50 µM; with HCT-116 colon it was > 50 µM; in the experiment on A498 renal it was 43.1 µM.
Turning to `COc1cccc2c1C(=O)c1c(O)c3c(c(O)c1C2=O)C[C@@](O)(C(C)=O)C[C@@H]3OC1CC(O)C(O)C(C)O1` (some centres not stated), the TGI is 0.523 µM and 0.137 µM in the experiment on MOLT-4 leukemia; 6.31 µM and 10.4 µM in the experiment with A549 NSCLC; 23.6 µM with OVCAR-3 ovarian; 8.12 µM and 19.4 µM with 786-0 renal; 18 µM in the experiment on M14 melanoma; 36.9 µM in the experiment with T-47D breast. The TGI in the experiment on RPMI-8226 leukemia was 5.5 µM and 8.53 µM; in the experiment with HCT-116 colon it was 3.54 µM and 3.82 µM; in the experiment with A498 renal, 9.01 µM. The GI50 with M14 melanoma is 2.7 µM.
Consider `CCCCCCCC(=O)NS(=O)(=O)c1ccccc1`, for which the TGI with MOLT-4 leukemia, in the experiment on A549 NSCLC, with OVCAR-3 ovarian, in the experiment with 786-0 renal, in the experiment on M14 melanoma and with T-47D breast was > 100 µM each time. Further, the TGI in the experiment on RPMI-8226 leukemia, in the experiment with HCT-116 colon and with A498 renal was > 100 µM in each case.
As to `COc1cc2c(c(OC)c1OC)C(=O)c1c-2n(CCCN=[N+]=[N-])c(=O)c2cc([N+](=O)[O-])ccc12`, the GI50 is > 100 µM in the experiment on MOLT-4 leukemia; > 100 µM with A549 NSCLC; > 100 µM in the experiment on OVCAR-5 ovarian; > 100 µM in the experiment on OVCAR-3 ovarian; 41 µM in the experiment on 786-0 renal; > 100 µM in the experiment with M14 melanoma. Further, the GI50 is > 100 µM in the experiment on T-47D breast, 36.1 µM with HCT-116 colon and 14 µM with A498 renal. Besides, the TGI in the experiment on MOLT-4 leukemia, in the experiment on A549 NSCLC, in the experiment on OVCAR-5 ovarian, in the experiment with OVCAR-3 ovarian, in the experiment on 786-0 renal and with M14 melanoma was > 100 µM each time. Besides, the TGI in the experiment with T-47D breast is > 100 µM; with HCT-116 colon, > 100 µM; in the experiment on A498 renal, 54.1 µM.
`CC(=O)Oc1ccccc1C(=O)NCCC[Se]C#N`: the GI50 with MOLT-4 leukemia was 2.46 µM; in the experiment on A549 NSCLC it was 1.84 µM; in the experiment with OVCAR-5 ovarian, 2.78 µM; in the experiment on 786-0 renal, 2.1 µM; in the experiment on M14 melanoma, 1.82 µM; in the experiment on T-47D breast it was 3.19 µM. For the same compound, the GI50 in the experiment on RPMI-8226 leukemia was 2.41 µM; with HCT-116 colon it was 1.87 µM; in the experiment with A498 renal, 2.1 µM. Besides, the TGI amounted to 8.53 µM in the experiment on MOLT-4 leukemia; 3.6 µM with A549 NSCLC; 6.91 µM with OVCAR-5 ovarian; 4.38 µM in the experiment with 786-0 renal; 5.38 µM with M14 melanoma; 17.8 µM in the experiment on T-47D breast. The TGI was 6.04 µM in the experiment with RPMI-8226 leukemia, 5.03 µM in the experiment on HCT-116 colon and 4.08 µM with A498 renal.
For `Clc1ccc(-c2nc(C(Cl)Cl)nc3cc(-c4ccccc4)nn23)cc1`, the GI50 was 1.74 µM in the experiment with MOLT-4 leukemia; 0.875 µM in the experiment with A549 NSCLC; 1.53 µM with OVCAR-5 ovarian; 0.925 µM in the experiment with OVCAR-3 ovarian; > 50 µM in the experiment with 786-0 renal; 1.73 µM with T-47D breast. The GI50 is 2.54 µM with RPMI-8226 leukemia, 1.67 µM with HCT-116 colon and 0.912 µM in the experiment with A498 renal. The TGI with MOLT-4 leukemia is > 50 µM; in the experiment on A549 NSCLC, 2.34 µM; in the experiment with OVCAR-5 ovarian, > 50 µM; in the experiment on OVCAR-3 ovarian, 2.01 µM; with 786-0 renal it was > 50 µM; in the experiment with T-47D breast it was > 50 µM. The results for the TGI in the experiment with RPMI-8226 leukemia, with HCT-116 colon and in the experiment on A498 renal were > 50 µM, > 50 µM and 2.21 µM, respectively.
In the case of `COC(=O)c1ccc(NC(N)=NCC(C)(C)COc2ccc(C(F)(F)F)cc2)nc1`, the GI50 with A549 NSCLC is 1.63 µM; in the experiment on OVCAR-5 ovarian, 1.6 µM; in the experiment with OVCAR-3 ovarian, 1.64 µM; in the experiment with 786-0 renal, 1.46 µM; in the experiment on T-47D breast, 1.37 µM; in the experiment on RPMI-8226 leukemia, 1.3 µM. The GI50 with A498 renal is 1.94 µM. Moreover, the TGI in the experiment on A549 NSCLC stood at 3.17 µM; in the experiment with OVCAR-5 ovarian, 3.08 µM; in the experiment on OVCAR-3 ovarian it was 3.17 µM; with 786-0 renal it was 2.83 µM; in the experiment on T-47D breast it was 3.21 µM; in the experiment on RPMI-8226 leukemia it was 3.64 µM. The TGI in the experiment on A498 renal worked out at 5.82 µM.
For `COc1ccc(C2CC(c3cccc(OC)c3)=NN2C(=O)c2cc(OC)c(OC)c(OC)c2)cc1` (configuration not stated), the GI50 in the experiment on MOLT-4 leukemia was 2.14 µM; with A549 NSCLC, 2.25 µM; in the experiment on OVCAR-5 ovarian, > 21.2 µM; in the experiment on 786-0 renal, 2.25 µM; in the experiment with M14 melanoma, 1.56 µM; in the experiment with T-47D breast, 3.02 µM. The GI50 in the experiment with RPMI-8226 leukemia was 1.05 µM; with HCT-116 colon it was 1.43 µM; with A498 renal it was 1.12 µM. The TGI is > 100 µM in the experiment on MOLT-4 leukemia; > 100 µM with A549 NSCLC; > 100 µM in the experiment with OVCAR-5 ovarian; > 100 µM in the experiment on 786-0 renal; > 29.3 µM in the experiment with M14 melanoma; > 100 µM with T-47D breast. For the same compound, the TGI is 4.35 µM with RPMI-8226 leukemia and > 100 µM in the experiment on HCT-116 colon.
